Measurements published in PMC12042115 (mLife, 2025).
Values joined by “and” are separate entries in the source; they are usually repeats but may differ in a detail not shown here. Equal values may be shown once. Read-outs that look alike come from different tables or passages of the source.

System: wild‐type BCG cells
Type: cell-based, M. bovis BCG
Conditions: for Mean Ratio (GDI5755_2d vs DMSO_2d): 2d; for Ratio: single ratios, GDI5755_3d vs DMSO_3d

## O=C(Oc1ccc(Cl)cc1)c1ccc(N2CCOCC2)c([N+](=O)[O-])c1 [GDI‐5755]
Protein BCG_3079c A0A0H3M8N0 NADPH-dependent FMN reductase-like domain-containing protein，FMN reductase, up-regulated
  Mean Ratio (GDI5755_2d vs DMSO_2d): 1.67
Protein BCG_3185c A0A0H3M8B9 Possible dioxygenase, up-regulated
  Mean Ratio (GDI5755_2d vs DMSO_2d): 2.02
Protein BCG_3281c A0A0H3MAS0 Probable transmembrane alkane 1-monooxygenase alkB, up-regulated
  Mean Ratio (GDI5755_2d vs DMSO_2d): 1.48
Protein BCG_3298 A0A0H3MAT3 DUF1490 family protein, up-regulated
  Mean Ratio (GDI5755_2d vs DMSO_2d): 1.92
Protein BCG_3319c A0A0H3MAV3 L-lysine 6-transaminase, up-regulated
  Mean Ratio (GDI5755_2d vs DMSO_2d): 1.48
Protein BCG_3476 A0A0H3MB64 Probable dioxygenase, up-regulated
  Mean Ratio (GDI5755_2d vs DMSO_2d): 1.55
Protein BCG_3588 A0A0H3M9C1 Probable conserved membrane protein, up-regulated
  Mean Ratio (GDI5755_2d vs DMSO_2d): 1.81
Protein BCG_3590 A0A0H3MBE7 Rieske-type oxygenase, up-regulated
  Mean Ratio (GDI5755_2d vs DMSO_2d): 1.45
Protein BCG_3591 A0A0H3MID2 Uncharacterized protein,BCG_3591, up-regulated
  Mean Ratio (GDI5755_2d vs DMSO_2d): 1.62
Protein BCG_3826c A1KQ98 Putative S-adenosyl-L-methionine-dependent methyltransferase BCG_3826c, up-regulated
  Mean Ratio (GDI5755_2d vs DMSO_2d): 1.54
Protein BCG_3917c A0A0H3MJE2 Monooxygenase ethA, up-regulated
  Mean Ratio (GDI5755_2d vs DMSO_2d): 1.44
s002 sheet P value, unrounded
  Mean_Ratio_GDI5755_2d-VS-WT_2d_control: 3.462 and 2.763 and 2.713 and 2.648 and 2.17
s002 sheet annot_file, c8 (rounded)
  Mean_Ratio_GDI5755_2d-VS-WT_2d_control: 1.08 and 0.90 and 1.06 and 0.93 and 0.81
s002 sheet annot_file, c9 (unrounded)
  Mean_Ratio_GDI5755_2d-VS-WT_2d_control: 1.083 and 0.8951 and 1.059 and 0.9258 and 0.8124
s003 sheet P value
  Mean_Ratio_GDI5755_3d-VS-WT_3d_control: 3.94 and 2.77 and 2.53 and 2.26 and 2.25
s003 sheet annot_file
  Mean_Ratio_GDI5755_3d-VS-WT_3d_control: 1.18 and 1.02 and 1.00
Protein A0A0G2Q9F3, BCG_0030c (Rv3924c), Large ribosomal subunit protein bL34
  Ratio: 0.8126 and 0.7464 and 0.864 and 0.7929
Protein A0A0H3M7L0, BCG_2659c (Rv2632c), DUF1876 domain-containing protein
  Ratio: 0.6783 and 0.84 and 0.8345 and 0.8579
Protein A0A0H3M8R4, BCG_3395 (Rv1267c), Possible transcriptional regulatory protein embR2
  Ratio: 0.7934 and 0.8013 and 0.8041 and 0.8107
Protein A0A0H3M499, BCG_1243 (Rv1180/Rv1181), Probable polyketide beta-ketoacyl synthase pks3
  Ratio: 0.7824 and 0.8155 and 0.7985 and 0.8135
Protein A0A0H3M677, BCG_1564 (Rv1500), Probable glycosyltransferase
  Ratio: 0.8075 and 0.8276 and 0.7828 and 0.8014
Protein A0A0H3MA33, BCG_1381c (Rv1320c), Possible adenylate cyclase
  Ratio: 0.785 and 0.7965 and 0.7852 and 0.8412
Protein A0A0H3MBI4, BCG_2001A (Rv1962A), Antitoxin VapB35
  Ratio: 0.8087 and 0.8452 and 0.7652 and 0.7971
Protein A0A0H3MBL1, BCG_3682c (Rv3624c), Hypoxanthine phosphoribosyltransferase
  Ratio: 0.7684 and 0.8491 and 0.778 and 0.8193
Protein A0A0H3MDB0, BCG_2775c (Rv2759c), Ribonuclease VapC
  Ratio: 0.8535 and 0.7284 and 0.8794 and 0.7453
Protein A1KPC8, BCG_3507c (Rv3441c), Phosphoglucosamine mutase
  Ratio: 0.7677 and 0.7655 and 0.8493 and 0.8355
Third day, 2×MIC
  proteome downregulated: 49.6%
up-regulated, A0A0H3M0N8, Mtb Rv0097, Possible oxidoreductase
  Mean_Ratio (GDI5755_3d vs DMSO_3d), protein BCG_0130: 1.5
up-regulated, A0A0H3M1F5, Mtb MRA_0147, DUF427 domain-containing protein
  Mean_Ratio (GDI5755_3d vs DMSO_3d), protein BCG_0176: 1.5
up-regulated, A0A0H3M1W6, Mtb Rv0578c, PE-PGRS family protein
  Mean_Ratio (GDI5755_3d vs DMSO_3d), protein BCG_0623c: 1.8
up-regulated, A0A0H3M1Y1, Mtb Rv0313, Transmembrane protein
  Mean_Ratio (GDI5755_3d vs DMSO_3d), protein BCG_0353: 1.6
up-regulated, A0A0H3M2R5, Mtb Rv0190, Copper-sensing transcriptional repressor RicR
  Mean_Ratio (GDI5755_3d vs DMSO_3d), protein BCG_0227: 1.4
up-regulated, A0A0H3M2T8, Mtb Rv0677c, Possible conserved membrane protein mmpS5
  Mean_Ratio (GDI5755_3d vs DMSO_3d), protein BCG_0726c: 1.4
up-regulated, A0A0H3M3D0, Mtb Rv1187, L-glutamate gamma-semialdehyde dehydrogenase
  Mean_Ratio (GDI5755_3d vs DMSO_3d), protein BCG_1249: 1.6
up-regulated, A0A0H3M3I9, Mtb Rv1275, Lipoprotein lprC
  Mean_Ratio (GDI5755_3d vs DMSO_3d), protein BCG_1334: 1.3
up-regulated, A0A0H3M3L0, Conserved hypothetical transmembrane protein
  Mean_Ratio (GDI5755_3d vs DMSO_3d), protein A0A0H3M3L0Rv1303: 1.4
up-regulated, A0A0H3M3L9, Mtb Rv0467, isocitrate lyase
  Mean_Ratio (GDI5755_3d vs DMSO_3d), protein BCG_0507: 1.5
up-regulated, A0A0H3M3N1, Mtb Rv1342c, Conserved membrane protein
  Mean_Ratio (GDI5755_3d vs DMSO_3d), protein BCG_1404c: 1.5
up-regulated, A0A0H3M3P8, Mtb MRA_1004, Uncharacterized protein
  Mean_Ratio (GDI5755_3d vs DMSO_3d), protein BCG_1053: 1.5
up-regulated, A0A0H3M3S8, Mtb Rv1411c, Lipoarabinomannan carrier protein LprG
  Mean_Ratio (GDI5755_3d vs DMSO_3d), protein BCG_1472c: 1.4
up-regulated, A0A0H3M3U8, Mtb Rv0534c, 1,4-dihydroxy-2-naphthoate octaprenyltransferase, menA
  Mean_Ratio (GDI5755_3d vs DMSO_3d), protein BCG_0578c: 1.9
up-regulated, A0A0H3M4E4, Mtb Rv1623c, integral membrane cytochrome D ubiquinol oxidase (Subunit I) cydA
  Mean_Ratio (GDI5755_3d vs DMSO_3d), protein BCG_1661c: 1.6
up-regulated, A0A0H3M4W6, Mtb Rv0968, DUF1490 family protein
  Mean_Ratio (GDI5755_3d vs DMSO_3d), protein BCG_1022: 1.5
up-regulated, A0A0H3M5K5, Mtb Rv1748, DUF4129 domain-containing protein
  Mean_Ratio (GDI5755_3d vs DMSO_3d), protein BCG_1787: 1.4
up-regulated, A0A0H3M6A1, Mtb Rv1532c, Thioesterase domain-containing protein
  Mean_Ratio (GDI5755_3d vs DMSO_3d), protein BCG_1584c: 1.3
up-regulated, A0A0H3M6T8, Mtb MRA_1768B, Uncharacterized protein
  Mean_Ratio (GDI5755_3d vs DMSO_3d), protein BCG_1795c: 1.4
up-regulated, A0A0H3M7D9, Mtb Rv1959c, Toxin ParE1
  Mean_Ratio (GDI5755_3d vs DMSO_3d), protein BCG_1998c: 1.4
up-regulated, A0A0H3M7F6, Mtb Rv2560, proline and glycine rich transmembrane protein
  Mean_Ratio (GDI5755_3d vs DMSO_3d), protein BCG_2583: 1.7
up-regulated, A0A0H3M7K8, Mtb Rv0244c, acyl-CoA dehydrogenase fadE5
  Mean_Ratio (GDI5755_3d vs DMSO_3d), protein BCG_0282c: 1.6
up-regulated, A0A0H3M7L3, Mtb Rv0249c, Succinate dehydrogenase [membrane anchor subunit]
  Mean_Ratio (GDI5755_3d vs DMSO_3d), protein BCG_0287c: 1.4
up-regulated, A0A0H3M7M3, Mtb Rv2053c, transmembrane protein
  Mean_Ratio (GDI5755_3d vs DMSO_3d), protein BCG_2072c: 1.6
up-regulated, A0A0H3M7S6, Mtb Rv2710, RNA polymerase sigma factor, sigB
  Mean_Ratio (GDI5755_3d vs DMSO_3d), protein BCG_2723: 1.3
up-regulated, A0A0H3M7W9, Mtb Rv0384c, Chaperone protein ClpB
  Mean_Ratio (GDI5755_3d vs DMSO_3d), protein BCG_0422c: 1.5
up-regulated, A0A0H3M8B9, Mtb Rv3161c, Dioxygenase
  Mean_Ratio (GDI5755_3d vs DMSO_3d), protein BCG_3185c: 2.2
up-regulated, A0A0H3M8D0, Mtb Rv3171c, Possible non-heme haloperoxidase hpx
  Mean_Ratio (GDI5755_3d vs DMSO_3d), protein BCG_3195c: 1.4
up-regulated, A0A0H3M8M0, Mtb Rv0679c, Conserved hypothetical threonine rich protein
  Mean_Ratio (GDI5755_3d vs DMSO_3d), protein BCG_0728c: 1.4
up-regulated, A0A0H3M8N0, Mtb Rv3054c, NADPH-dependent FMN reductase-like domain-containing protein
  Mean_Ratio (GDI5755_3d vs DMSO_3d), protein BCG_3079c: 2.0
up-regulated, A0A0H3M8N5, Mtb Rv3059, Probable cytochrome P450 136 cyp136
  Mean_Ratio (GDI5755_3d vs DMSO_3d), protein BCG_3084: 1.3
up-regulated, A0A0H3M8U1, Mtb Rv3130c, Diacylglycerol O-acyltransferase
  Mean_Ratio (GDI5755_3d vs DMSO_3d), protein BCG_3153c: 1.4
up-regulated, A0A0H3M8U9, Mtb Rv2497c, Probable pyruvate dehydrogenase E1 component (Alpha subunit) pdhA
  Mean_Ratio (GDI5755_3d vs DMSO_3d), protein BCG_2517c: 1.4
up-regulated, A0A0H3M8V5, Mtb Rv3160c, Possible transcriptional regulatory protein (Probably tetR-family)
  Mean_Ratio (GDI5755_3d vs DMSO_3d), protein BCG_3184c: 1.4
up-regulated, A0A0H3M9C1, Mtb Rv3524, Serine/threonine-protein kinase PknD(NU-6027 target)
  Mean_Ratio (GDI5755_3d vs DMSO_3d), protein BCG_3588: 1.8
up-regulated, A0A0H3M9C3, Mtb Rv2708c, DUF3039 domain-containing protein
  Mean_Ratio (GDI5755_3d vs DMSO_3d), protein BCG_2721c: 1.4
up-regulated, A0A0H3M9F1, Mtb Rv1057, YVTN family beta-propeller repeat protein
  Mean_Ratio (GDI5755_3d vs DMSO_3d), protein BCG_1115: 1.5
up-regulated, A0A0H3M9G5, conserved transmembrane protein
  Mean_Ratio (GDI5755_3d vs DMSO_3d), protein BCG_1130: 1.5
up-regulated, A0A0H3M9L8, Mtb Rv2792c, Possible resolvase
  Mean_Ratio (GDI5755_3d vs DMSO_3d), protein BCG_2810c: 1.5
